Earlier results in US11793200B2, “Hypochlorous acid disinfectant and its production method” (SUPER AQUA INTERNATIONAL CO., LTD., priority 2019, dated 2023).

Tested on: coliform
Conditions: compared with hypochlorite ion (CLO-); both effective free chlorine; FIG. 2

For OCl [hypochlorous acid (HCLO), Hypochlorous acid], the “sterilization of hypochlorous acid (HCLO) relative to hypochlorite ion (CLO-)” value is listed as 80 times.
